Test results: patent publication US20240057592A1, “PESTICIDE COMPOSITIONS OF PHENOL AND RESORCINOL DIENES AND TRIENES” (METABOLIC INSIGHTS LTD., priority 2020, published 2024)

What was measured:
[1] = test system: Rhizoctonia solani; assay: Microplate based assay of bioactivity against Rhizoctonia solani; format: cell-based
Source text: • 1) Screen plate at 3 more dates: 3 d, 7 d, 14 d and 21 d following the assay start • 2) Calculate the difference of absorbance between each screen and the read at zero time • 3) Calculate the percentage of growth inhibition of each well at each time point. […]

[2] = test system: Pythium aphanidermatum; assay: Microplate based screening of bioactivity against Pythium aphanidermatum; format: cell-based
Procedure: The following Materials, methods and equipment were used: • Materials: SCH, PDBC, DMSO • Equipment: Plate reader, Centrifuge, Shaker, Incubator
• Grow Pythium aphanidermatum on SCH in 90 mm petri plates to get sporulating hyphae. […]
• 1) Read out the plate at 3 more dates: 3 d, 7 d, 14 d and 21 d following the assay start • 2) Calculate the difference of absorbance between each readout and the readout at zero time • 3) Calculate the percentage of growth inhibition of each well at each time point. […]

[3] = test system: Pseudomonas syringae; assay: Microplate based screening of bioactivity against Pseudomonas syringae; format: cell-based
Procedure: • 1) Grow Pseudomonas on LBA plates at 28° C. for 2 days to get a single colony • 2) Transfer a single colony using a sterile toothpick into a 50 ml sterile tube containing 5 ml LB and grow for 24 at 28° C. and 150 RPM • 3) Chill the tube in the fridge for 1 h • 4) Add 7.5 ml of fridge cold, sterile, glycerol solution to the tube—to get 60% glycerol solution • 5) Mix well but gently to get perfect mixing—use vortex at 1000 RPM • 6) Aliquot 100 ul of bacteria suspension in 60% glycerol into 1.5 ml tubes—each aliquot should be enough for screening of 10 microplates • 7) Store the bacteria suspension in 60% glycerol at −20° C.
• 1) Take 1.5 ml tube with 100 ul frozen Pseudomonas suspension from the freezer and thaw it on ice • 2) Prepare in the hood 50 ml tubes with 40 ml fridge cold LB • 3) Mix 40 ul of bacteria suspension with 40 ml fridge cold LB in a 50 ml tube. This amount is enough for activity screening of 10 microplates • 4) Use this suspension for bioactivity screening experiments.
The bioactivity values are in % and reflect the potential of eradicating the target pests. Rules for Bioactivity Relative Value Calculation (Expressed in % from Maximal Value) • a. […] Pseudomonas syringae—activity grade (1/2/3)×repeats #X days of activity/168 (maximal value 3×4×14=168)*100

[4] = test system: Pythium aphanidermatum; assay: In-vivo validation under greenhouse conditions in cucumber seedlings infected with Pythium aphanidermatum; conditions: preventative treatment 24 h before inoculation, 7 d after inoculation, best of 9 experiments
Procedure: (§1) Formulation 3—Three types of stock solutions were used for final CART formulation preparation at 400 ppm: • (A) 0.1% CART solution in water+base (CART dissolved in water to 0.1% and sonicated for 10 mins at room temperature, then Na2CO3 25% stock was added to volume of 4% of the solution. The solution should be clear orange and at pH=8.0. The solution was sonicated for 20 minutes); • (B) 0.4% Xanthan Gum in water (w/w); • (C) 0.6% Silwet in water (w/w). The final formulation which was applied to cucumber seedlings composed of: 40% of stock solution A, 10% of stock solutions B and C, and 40% of water. The final formulation 3 was either applied as 400 ppm of diluted to the required concentrations and applied to cucumber seedlings. Formulation 4—Three types of stock solutions were used for final CART formulation preparation at 400 ppm: • (A) 10% CART in DMSO (CART dissolved in DMSO to 10% (w/w) and sonicated for 5 mins at room temperature); • (B) 0.4% Xanthan Gum in water (w/w); • (C) 0.6% Silwet in water (w/w). The final formulation which was applied to cucumber seedlings composed of: […], 10% of stock solutions B and C, and 76% of water. The final formulation 4 was either applied as 400 ppm of diluted to the required concentrations and applied to cucumber seedlings. […]
(§2) To evaluate the effect of a Cardol triene in infected plants compared to control plants (infected but not treated) the data was analyzed by Student's t-test and the p-value is calculated. […]
• General description: Pythium aphanidermatum disease severity development was evaluated following preventative treatment by Cardol triene (CART) […]

[5] = test system: Rhizoctonia solani; assay: In-vivo validation under greenhouse conditions in cucumber seedlings infected with Rhizoctonia solani; conditions: preventative treatment 24 h before inoculation, 7 d after inoculation, best of 9 experiments
Procedure: as §1, §2
• General description: Rhizoctonia disease severity were evaluated following preventative treatment with CART (Cardol triene). […]

[6] = 10 ul of 250 ppm solution + 40 ul inoculum, activity grade x repeats x days of activity/252*100, read to 21 d

C=CC/C=C\C/C=C\CCCCCCCc1cc(O)cc(O)c1 [Cardol triene, 5-8Z,11Z,14-pentadecatrien-1-yl-1,3-benzenediol]
Relative Activity value (%) [1, 6]: 60%
pesticidal activity in words ([1]; summary statement): effective pesticides
Relative Activity value (%) [2, 6]: 100%
pesticidal activity in words ([2]; summary statement): effective pesticides
Relative Activity value (%) ([3]; 10 ul of 250 ppm solution + 40 ul inoculum, activity grade x repeats x days of activity/168*100): 50%
pesticidal activity in words ([3]; summary statement): effective pesticides
efficacy at preventing the plants death ([4]; 100 ppm): up to 97.6%
efficacy at preventing the plants death ([4]; 200 ppm): up to 100%
efficacy at preventing the plants death ([4]; 400 ppm): up to 71.4%
efficacy at preventing the plants death ([5]; 100 ppm): up to 81.2%
efficacy at preventing the plants death ([5]; 200 ppm): up to 100%
efficacy at preventing the plants death ([5]; 400 ppm): up to 98.4%
